PubChem BioAssay AID1963849 (Molecular Pharmacology Branch, DTP, NCI, 2024)

Tested on: 299254-011-R-J1-PDC complex spheroid viability
Test: Anticancer human tumor 299254-011-R-J1-PDC patient-derived melanoma cell line growth inhibition [POLQ]
Conditions: for IC50: curve of first compound; for viability, T/C: stronger effect = lower value
How it was run: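 Three-cell-type spheroids modelling solid tumor plus stroma served as the readout system; POL inhibitors were tested individually and in combination, concentration ranges set by clinical Cmax where known.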

[1] = second compound 0.0316 µM, first compound 0.00316 µM
[2] = second compound 0.0316 µM, first compound 0.01 µM
[3] = second compound 0.0316 µM, first compound 0.0316 µM
[4] = second compound 0.0316 µM, first compound 0.1 µM
[5] = second compound 0.1 µM, first compound 0.00316 µM
[6] = second compound 0.1 µM, first compound 0.01 µM
[7] = second compound 0.1 µM, first compound 0.0316 µM
[8] = second compound 0.1 µM, first compound 0.1 µM
[9] = second compound 0.316 µM, first compound 0.00316 µM
[10] = second compound 0.316 µM, first compound 0.01 µM
[11] = second compound 0.316 µM, first compound 0.0316 µM
[12] = second compound 0.316 µM, first compound 0.1 µM
[13] = second compound 1 µM, first compound 0.00316 µM
[14] = second compound 1 µM, first compound 0.01 µM
[15] = second compound 1 µM, first compound 0.0316 µM
[16] = second compound 1 µM, first compound 0.1 µM
[17] = second compound 3.16 µM, first compound 0.00316 µM
[18] = second compound 3.16 µM, first compound 0.01 µM
[19] = second compound 3.16 µM, first compound 0.0316 µM
[20] = second compound 3.16 µM, first compound 0.1 µM
[21] = second compound 10 µM, first compound 0.00316 µM
[22] = second compound 10 µM, first compound 0.01 µM
[23] = second compound 10 µM, first compound 0.0316 µM
[24] = second compound 10 µM, first compound 0.1 µM
[25] = second compound 0.0316 µM, first compound 0.316 µM
[26] = second compound 0.0316 µM, first compound 1 µM
[27] = second compound 0.1 µM, first compound 0.316 µM
[28] = second compound 0.1 µM, first compound 1 µM
[29] = second compound 0.316 µM, first compound 0.316 µM
[30] = second compound 0.316 µM, first compound 1 µM
[31] = second compound 1 µM, first compound 0.316 µM
[32] = second compound 1 µM, first compound 1 µM
[33] = second compound 3.16 µM, first compound 0.316 µM
[34] = second compound 3.16 µM, first compound 1 µM
[35] = second compound 10 µM, first compound 0.316 µM
[36] = second compound 10 µM, first compound 1 µM
[37] = second compound 0.0316 µM, first compound 3.16 µM
[38] = second compound 0.0316 µM, first compound 10 µM
[39] = second compound 0.1 µM, first compound 3.16 µM
[40] = second compound 0.1 µM, first compound 10 µM
[41] = second compound 0.316 µM, first compound 3.16 µM
[42] = second compound 0.316 µM, first compound 10 µM
[43] = second compound 1 µM, first compound 3.16 µM
[44] = second compound 1 µM, first compound 10 µM
[45] = second compound 3.16 µM, first compound 3.16 µM
[46] = second compound 3.16 µM, first compound 10 µM
[47] = second compound 10 µM, first compound 3.16 µM
[48] = second compound 10 µM, first compound 10 µM
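Further: spheroids exposed to drugs for one week before measurement.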
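Wherever viability, T/C is given: percent viability relative to DMSO vehicle control taken as 100%.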

Structure (SMILES): CC[C@@]1(O)C(=O)OCc2c1cc1n(c2=O)Cc2cc3c(CN(C)C)c(O)ccc3nc2-1 + COC1C(OC(N)=O)C(O)C(Oc2ccc3c(O)c(NC(=O)c4ccc(O)c(CC=C(C)C)c4)c(=O)oc3c2C)OC1(C)C
- IC50 (second compound 0.0316 µM): > 100 nM
- IC50 (second compound 0.1 µM): > 100 nM
- IC50 (second compound 0.316 µM): > 100 nM
- IC50 (second compound 1 µM): > 100 nM
- IC50 (second compound 3.16 µM): > 100 nM
- IC50 (second compound 10 µM): > 100 nM
- viability, T/C (second compound 0.0316 µM, first compound 0.000316 µM): 104%
- viability, T/C (second compound 0.0316 µM, first compound 0.001 µM): 95.4%
- viability, T/C [1]: 123%
- viability, T/C [2]: 101%
- viability, T/C [3]: 112%
- viability, T/C [4]: 76%
- viability, T/C (second compound 0.1 µM, first compound 0.000316 µM): 111%
- viability, T/C (second compound 0.1 µM, first compound 0.001 µM): 105%
- viability, T/C [5]: 107%
- viability, T/C [6]: 110%
- viability, T/C [7]: 114%
- viability, T/C [8]: 83.5%
- viability, T/C (second compound 0.316 µM, first compound 0.000316 µM): 102%
- viability, T/C (second compound 0.316 µM, first compound 0.001 µM): 120%
- viability, T/C [9]: 103%
- viability, T/C [10]: 102%
- viability, T/C [11]: 120%
- viability, T/C [12]: 74.5%
- viability, T/C (second compound 1 µM, first compound 0.000316 µM): 104%
- viability, T/C (second compound 1 µM, first compound 0.001 µM): 106%
- viability, T/C [13]: 111%
- viability, T/C [14]: 110%
- viability, T/C [15]: 110%
- viability, T/C [16]: 67.6%
- viability, T/C (second compound 3.16 µM, first compound 0.000316 µM): 115%
- viability, T/C (second compound 3.16 µM, first compound 0.001 µM): 104%
- viability, T/C [17]: 93.6%
- viability, T/C [18]: 105%
- viability, T/C [19]: 105%
- viability, T/C [20]: 84.6%
- viability, T/C (second compound 10 µM, first compound 0.000316 µM): 112%
- viability, T/C (second compound 10 µM, first compound 0.001 µM): 111%
- viability, T/C [21]: 112%
- viability, T/C [22]: 102%
- viability, T/C [23]: 110%
- viability, T/C [24]: 87.1%

Structure (SMILES): COc1cccc(OCCCN)c1-c1cc(Nc2cnc(C#N)cn2)n[nH]1 + Nc1ccc(C#CCN(C(=O)Cc2ncc(C(F)(F)F)cc2C(F)(F)F)c2ccc(F)cc2)nn1
- IC50 (second compound 0.0316 µM): 147 nM
- IC50 (second compound 0.1 µM): 97.4 nM
- IC50 (second compound 0.316 µM): 96.8 nM
- IC50 (second compound 1 µM): 79.5 nM
- IC50 (second compound 3.16 µM): 70.6 nM
- IC50 (second compound 10 µM): 29.4 nM
- viability, T/C [1]: 96.7%
- viability, T/C [2]: 129%
- viability, T/C [3]: 78.6%
- viability, T/C [4]: 61.2%
- viability, T/C [25]: 40.2%
- viability, T/C [26]: 42.6%
- viability, T/C [5]: 106%
- viability, T/C [6]: 107%
- viability, T/C [7]: 84.9%
- viability, T/C [8]: 49.2%
- viability, T/C [27]: 51.6%
- viability, T/C [28]: 42.3%
- viability, T/C [9]: 111%
- viability, T/C [10]: 97.5%
- viability, T/C [11]: 67%
- viability, T/C [12]: 51.8%
- viability, T/C [29]: 40%
- viability, T/C [30]: 35.5%
- viability, T/C [13]: 98.3%
- viability, T/C [14]: 111%
- viability, T/C [15]: 72.2%
- viability, T/C [16]: 51.6%
- viability, T/C [31]: 41.8%
- viability, T/C [32]: 37.2%
- viability, T/C [17]: 115%
- viability, T/C [18]: 79.6%
- viability, T/C [19]: 63.9%
- viability, T/C [20]: 41.7%
- viability, T/C [33]: 37%
- viability, T/C [34]: 46.6%
- viability, T/C [21]: 121%
- viability, T/C [22]: 75.1%
- viability, T/C [23]: 48.9%
- viability, T/C [24]: 38%
- viability, T/C [35]: 32.3%
- viability, T/C [36]: 35.7%

Structure (SMILES): CC1COCCN1c1cc(C2(O)CC3CCC(C2)O3)c2cnn(-c3ccn[nH]3)c2n1 (stereo not drawn) + COC1C(OC(N)=O)C(O)C(Oc2ccc3c(O)c(NC(=O)c4ccc(O)c(CC=C(C)C)c4)c(=O)oc3c2C)OC1(C)C
- IC50 (second compound 0.0316 µM): 136 nM
- IC50 (second compound 0.1 µM): 182 nM
- IC50 (second compound 0.316 µM): 206 nM
- IC50 (second compound 1 µM): 163 nM
- IC50 (second compound 3.16 µM): 159 nM
- IC50 (second compound 10 µM): 176 nM
- viability, T/C [3]: 102%
- viability, T/C [4]: 53.5%
- viability, T/C [25]: 35.8%
- viability, T/C [26]: 20.7%
- viability, T/C [37]: 14.8%
- viability, T/C [38]: 11.1%
- viability, T/C [7]: 86.4%
- viability, T/C [8]: 64.8%
- viability, T/C [27]: 36.6%
- viability, T/C [28]: 18.9%
- viability, T/C [39]: 16.8%
- viability, T/C [40]: 11.5%
- viability, T/C [11]: 88.9%
- viability, T/C [12]: 75.6%
- viability, T/C [29]: 34%
- viability, T/C [30]: 20.4%
- viability, T/C [41]: 14%
- viability, T/C [42]: 11.6%
- viability, T/C [15]: 109%
- viability, T/C [16]: 56.5%
- viability, T/C [31]: 37.4%
- viability, T/C [32]: 27.1%
- viability, T/C [43]: 15.6%
- viability, T/C [44]: 10.2%
- viability, T/C [19]: 91.5%
- viability, T/C [20]: 61.1%
- viability, T/C [33]: 33.1%
- viability, T/C [34]: 20.4%
- viability, T/C [45]: 13%
- viability, T/C [46]: 11.1%
- viability, T/C [23]: 87.6%
- viability, T/C [24]: 60.5%
- viability, T/C [35]: 40.7%
- viability, T/C [36]: 17.9%
- viability, T/C [47]: 16.6%
- viability, T/C [48]: 10.2%

Structure (SMILES): CNCc1ccc(-c2[nH]c3cc(F)cc4c3c2CCNC4=O)cc1 + Cc1cccc(N(C)C(=O)C2C(O)CCN2c2nc(C)cc(C(F)(F)F)c2C#N)c1
- IC50 (second compound 0.0316 µM): > 10000 nM
- IC50 (second compound 0.1 µM): > 10000 nM
- IC50 (second compound 0.316 µM): > 10000 nM
- IC50 (second compound 1 µM): > 10000 nM
- IC50 (second compound 3.16 µM): > 10000 nM
- IC50 (second compound 10 µM): > 10000 nM
- viability, T/C [3]: 101%
- viability, T/C [4]: 100%
- viability, T/C [25]: 104%
- viability, T/C [26]: 109%
- viability, T/C [37]: 104%
- viability, T/C [38]: 136%
- viability, T/C [7]: 102%
- viability, T/C [8]: 105%
- viability, T/C [27]: 110%
- viability, T/C [28]: 112%
- viability, T/C [39]: 112%
- viability, T/C [40]: 118%
- viability, T/C [11]: 109%
- viability, T/C [12]: 110%
- viability, T/C [29]: 98.1%
- viability, T/C [30]: 108%
- viability, T/C [41]: 130%
- viability, T/C [42]: 116%
- viability, T/C [15]: 107%
- viability, T/C [16]: 109%
- viability, T/C [31]: 98.3%
- viability, T/C [32]: 103%
- viability, T/C [43]: 119%
- viability, T/C [44]: 118%
- viability, T/C [19]: 120%
- viability, T/C [20]: 110%
- viability, T/C [33]: 117%
- viability, T/C [34]: 109%
- viability, T/C [45]: 112%
- viability, T/C [46]: 119%
- viability, T/C [23]: 113%
- viability, T/C [24]: 98.5%
- viability, T/C [35]: 96.8%
- viability, T/C [36]: 97%
- viability, T/C [47]: 108%
- viability, T/C [48]: 118%
